The target of this assay is T1, N-terminally GST-tagged human full length recombinant Mps-1 kinase (Homo sapiens, UniProt P33981).
T1 construct: N-terminally GST-tagged human full length recombinant Mps-1 kinase; purchased Invitrogen, Karslruhe, Germany PV4071
T1 sequence (P33981 1-857): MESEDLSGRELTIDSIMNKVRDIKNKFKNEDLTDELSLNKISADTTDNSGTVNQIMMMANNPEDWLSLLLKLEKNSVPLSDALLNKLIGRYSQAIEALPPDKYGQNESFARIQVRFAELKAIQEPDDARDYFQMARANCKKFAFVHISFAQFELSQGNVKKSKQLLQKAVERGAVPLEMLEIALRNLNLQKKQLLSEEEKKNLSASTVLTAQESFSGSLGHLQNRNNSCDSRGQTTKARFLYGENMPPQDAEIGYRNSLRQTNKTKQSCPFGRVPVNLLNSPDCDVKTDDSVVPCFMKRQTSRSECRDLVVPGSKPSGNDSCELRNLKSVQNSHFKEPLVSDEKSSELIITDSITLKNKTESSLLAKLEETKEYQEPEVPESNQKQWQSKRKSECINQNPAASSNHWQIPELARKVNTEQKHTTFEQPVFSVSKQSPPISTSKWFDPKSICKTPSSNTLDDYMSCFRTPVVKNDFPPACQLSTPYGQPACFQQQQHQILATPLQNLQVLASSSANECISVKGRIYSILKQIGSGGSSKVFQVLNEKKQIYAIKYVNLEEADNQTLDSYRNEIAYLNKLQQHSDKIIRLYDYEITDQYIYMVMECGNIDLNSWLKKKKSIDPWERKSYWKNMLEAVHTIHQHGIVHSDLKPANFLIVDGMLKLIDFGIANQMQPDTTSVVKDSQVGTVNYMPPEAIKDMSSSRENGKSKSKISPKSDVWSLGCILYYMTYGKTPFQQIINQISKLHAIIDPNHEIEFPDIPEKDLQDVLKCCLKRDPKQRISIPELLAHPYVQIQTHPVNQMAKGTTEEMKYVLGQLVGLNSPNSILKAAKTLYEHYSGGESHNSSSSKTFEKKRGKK
Nature of the assay: Mps-1 kinase assay (TR-FRET). The class given is biochemical. The following applies: Mps1 IC50 [nM], 10 μM ATP, 1 μM peptide substrate, 60 min at 22° C. The gist of the method:
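Inhibition of Mps-1 (N-terminal GST fusion, full length) toward a biotinylated peptide is read as Eu-to-XLent TR-FRET. Enzyme level, around 1 nM final, follows lot activity.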
On the technique in general: TR-FRET usually uses a lanthanide donor and a delayed reading to cut background.
`Cc1ccc(F)c(Nc2cc(NCC(C)(C)O)c3ncc(-c4ccc(C(=O)NC5CC5)c(C)c4)n3n2)c1` [Example 383, N-cyclopropyl-4-{6-[(2-fluoro-5-methylphenyl)amino]-8-[(2-hydroxy-2-methylpropyl)amino]imidazo[1,2-b]pyridazin-3-yl}-2-methylbenzamide]: the IC50 was found to be 0.3 nM.
For `Cc1cc(-c2cnc3c(NCC(C)(C)O)cc(-c4ccccc4)nn23)ccc1C(=O)NC1CC1` [Example 12, N-cyclopropyl-4-{8-[(2-hydroxy-2-methylpropyl)amino]-6-phenylimidazo[1,2-b]pyridazin-3-yl}-2-methylbenzamide] the value was 3.2 nM; for `CC(C)CNc1cc(-c2cnc3ccccc3c2)nn2c(-c3ccc(C(=O)NC4CC4)cc3)cnc12` [Example 108, N-cyclopropyl-4-{8-[(2-methylpropyl)amino]-6-(quinolin-3-yl)imidazo[1,2-b]pyridazin-3-yl} benzamide], 7 nM.
For the compound `Cc1cc(-c2cnc3c(NCCC(F)(F)F)cc(Oc4cccnc4)nn23)ccc1C(=O)NC1CC1` [Example 174, N-cyclopropyl-2-methyl-4-{6-(pyridin-3-yloxy)-8-[(3,3,3-trifluoro-propyl)amino]imidazo[1,2-b]pyridazin-3-yl}benzamide], the half-inhibitory concentration (IC50) is < 0.1 nM.
As to `Cc1cc(-c2cnc3c(NCCCN4CCCCC4)cc(Oc4cccc(F)c4)nn23)ccc1C(=O)NC1CC1` [Example 505, N-cyclopropyl-4-[6-(3-fluoro-phenoxy)-8-{[3-(piperidin-1-yl)propyl]amino}imidazo[1,2-b]pyridazin-3-yl]-2-methyl-benzamide], the IC50 is 0.2 nM.
For `Cc1cc(-c2cnc3c(NCC4COCCO4)cc(-c4ccncc4)nn23)ccc1C(=O)NC1CC1` (racemic) [Example 36, (RS)—N-cyclopropyl-4-{8-[(1,4-dioxan-2-ylmethyl)amino]-6-(pyridin-4-yl)imidazo[1,2-b]pyridazin-3-yl}-2-methylbenzamide] the value was 3 nM.
As to `Cc1cc(-c2cnc3c(NCCC(F)(F)F)cc(Nc4ccc(Cl)cc4)nn23)ccc1C(=O)NC1CC1` [Example 374, 4-{6-[(4-chlorophenyl)amino]-8-[(3,3,3-trifluoropropyl)amino]imidazo[1,2-b]pyridazin-3-yl}-N-cyclopropyl-2-methylbenzamide], the IC50 was 0.3 nM.
To `Cc1cc(-c2cnc3c(NCCC(F)(F)F)cc(C4CC4)nn23)ccc1C(=O)NC1CC1` [Example 48, N-cyclopropyl-4-{6-cyclopropyl-8-[(3,3,3-trifluoropropyl)amino]imidazo[1,2-b]pyridazin-3-yl}-2-methylbenzamide] belongs 1.4 nM; to `Cc1cc(-c2cnc3c(NCC(C)(C)O)cc(Sc4ccc(F)cc4)nn23)ccc1C(=O)NC1CC1` [Example 71, N-cyclopropyl-4-{6-[(4-fluorophenyl)sulfanyl]-8-[(2-hydroxy-2-methylpropyl)amino]imidazo[1,2-b]pyridazin-3-yl}-2-methylbenzamide], 0.8 nM.
With `Cc1cc(-c2cnc3c(NCC(C)(C)O)cc(Nc4ccc(F)cc4F)nn23)ccc1C(=O)NC1CC1` [Example 356, N-cyclopropyl-4-{6-[(2,4-difluorophenyl)amino]-8-[(2-hydroxy-2-methylpropyl)amino]imidazo[1,2-b]pyridazin-3-yl}-2-methylbenzamide], the IC50 was 0.6 nM.
To `Cc1cc(-c2cnc3c(NCC4CCS(=O)(=O)CC4)cc(Sc4ccccc4)nn23)ccc1C(=O)NC1CC1` [Example 302, N-cyclopropyl-4-[8-{[(1,1-dioxidotetrahydro-2H-thiopyran-4-yl)methyl]amino}-6-(phenylsulfanyl)imidazo[1,2-b]pyridazin-3-yl]-2-methylbenzamide] belongs 0.3 nM; to `CC(C)CNc1cc(-c2ccc(O)cc2)nn2c(-c3ccc(C(=O)NC4CC4)cc3)cnc12` [Example 141, N-cyclopropyl-4-{6-(4-hydroxyphenyl)-8-[(2-methylpropyl)amino]imidazo[1,2-b]pyridazin-3-yl}benzamide], 2.4 nM; to `Cc1cc(-c2cnc3c(NCC(C)(C)O)cc(Nc4ccc(F)nc4)nn23)ccc1C(=O)NC1CC1` [Example 406, N-cyclopropyl-4-{6-[(6-fluoropyridin-3-yl)amino]-8-[(2-hydroxy-2-methylpropyl)amino]imidazo[1,2-b]pyridazin-3-yl}-2-methylbenzamide], 0.4 nM.
With `Cc1cc(-c2cnc3c(NCCN4CCOCC4)cc(N(C)c4ccccc4O)nn23)ccc1C(=O)NC1CC1` [Example 539, N-cyclopropyl-4-(6-[(2-hydroxy-phenyl)(methyl)amino]-8-{[2-(morpholin-4-yl)ethyl]amino}imidazo[1,2-b]pyridazin-3-yl)-2-methylbenzamide], the concentration for half-maximal inhibition (IC50) amounted to 0.2 nM.
For `CC(C)CNc1cc(-c2cccc(O)c2)nn2c(-c3ccc(C(=O)NC4CC4)cc3)cnc12` [Example 140, N-cyclopropyl-4-{6-(3-hydroxyphenyl)-8-[(2-methylpropyl)amino]imidazo[1,2-b]pyridazin-3-yl}benzamide] the value was 3.9 nM; for `CC=Cc1cc(NCC(C)(C)O)c2ncc(-c3ccc(C(=O)NC4CC4)c(C)c3)n2n1` (mixture of isomers) [Example 24, N-cyclopropyl-4-{8-[(2-hydroxy-2-methylpropyl)amino]-6-[(1E/Z)-prop-1-en-1-yl]imidazo[1,2-b]pyridazin-3-yl}-2-methylbenzamide], 23.8 nM; for `CC(C)CNc1cc(-c2cccc(Cl)c2Cl)nn2c(-c3ccc(C(=O)NC4CC4)cc3)cnc12` [Example 131, N-cyclopropyl-4-{6-(2,3-dichlorophenyl)-8-[(2-methylpropyl)amino]imidazo[1,2-b]pyridazin-3-yl}benzamide], 10 nM.
As for `CC(C)CNc1cc(-c2ccc(C(=O)N(C)C)cc2)nn2c(-c3ccc(C(=O)NC4CC4)cc3)cnc12` [Example 109, 4-{3-[4-(Cyclopropylcarbamoyl)phenyl]-8-[(2-methylpropyl)amino]imidazo[1,2-b]pyridazin-6-yl}-N,N-dimethylbenzamide], the 50% inhibitory concentration (IC50) came to 2.1 nM.
To `CC(C)CNc1cc(-c2cccs2)nn2c(-c3ccc(C(=O)NC4CC4)cc3)cnc12` [Example 121, N-cyclopropyl-4-{8-[(2-methylpropyl)amino]-6-(thiophen-2-yl)imidazo [1,2-b]pyridazin-3-yl} benzamide] belongs 1.8 nM; to `CC(C)(O)CNc1cc(Sc2ccccc2)nn2c(-c3ccc(C(=O)NC4CC4)cc3O)cnc12` [Example 51B, N-cyclopropyl-3-hydroxy-4-{8-[(2-hydroxy-2-methylpropyl)amino]-6-(phenylsulfanyl)imidazo[1,2-b]pyridazin-3-yl}benzamide], 1.2 nM.
For `OCc1cccc(-c2cc(NCCC(F)(F)F)c3ncc(-c4ccc(C(=S)NC5CC5)cc4)n3n2)c1` [Example 46, N-cyclopropyl-4-{6-[3-(hydroxymethyl)phenyl]-8-[(3,3,3-trifluoropropyl)amino]imidazo[1,2-b]pyridazin-3-yl}benzenecarbothioamide] the value was 1.1 nM; for `CC(C)CNc1cc(-c2ccncc2)nn2c(-c3ccc(C(=S)NC4CC4)cc3)cnc12` [Example 13, N-cyclopropyl-4-[8-(isobutylamino)-6-(pyridin-4-yl)imidazo[1,2-b]pyridazin-3-yl]benzenecarbothioamide], 1.8 nM.

In general, IC50 refers to the concentration needed to halve the response being measured.

The values are drawn from patent publication US9255100B2 (BAYER INTELLECTUAL PROPERTY GMBH, priority 2010, dated 2016).
